From patent US12358904B2, “Inhibitors of TYK2” (Atomwise Inc., priority 2023, dated 2025)
pIC50: −log10 of the molar value.

Key:
[1] = tested on: IL-12/pSTAT4; test: IL-12 induced pSTAT4 assay in NK-92 cells; type: cell-based; conditions: Homo sapiens, NK92, IL-12 stimulation, read-out: Cellular potency (IL-12/pSTAT4)
Procedure, shortened: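 Overnight-starved NK-92 cells (20K/well) pre-incubated with compounds (1000 to 0.05 nM final) 30 min at 37 °C, then stimulated with IL-12 (10 ng/ml) for 30 min at 37 °C. Lysates assayed for pSTAT4 (Tyr693) by MSD electrochemiluminescence.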

[2] = tested on: GM-CSF/pSTAT5; test: GM-CSF induced pSTAT5 assay in CellSensor irf1-bla TF-1 cells; type: cell-based; conditions: GM-CSF 1 ng/mL; for pIC50: Homo sapiens, read-out: Cellular selectivity (GM-CSF induced pSTAT5)
Protocol: The CellSensor irf1-bla TF-1 cell line (LifeTechnologies, K1657) was cultured in RPMI 1640 Medium (Invitrogen 72400-047), 10% Fetal Bovine Serum (Invitrogen, 26400044), 1 mM Sodium pyruvate (Life Technologies, 11360039), 1% MEM NEAA (Life Technologies, 11140-035), 2 ng/ml of human recombinant GM-CSF (Fisher, PHC2015), 1% Penicillin/Streptomycin (Life Technologies, 15140-122) and 5 μg/ml of Blasticidin (ThermoFisher, A1113903).
The cell line was seeded in a T75 flask at 13×10^6 cells/50 mL in starvation medium (Opti-MEM™ I Reduced Serum Medium, no phenol red (Life Technologies, 11058-021), 1 mM Na pyruvate (Life Technologies, 11360039), 1% MEM NEAA (Life Technologies, 11140-035), and 1% Penicillin/Streptomycin (Life Technologies, 15140-122)) for 16 hours at 37° C. under 5% CO2 the day before the assay.
For the assay, CellSensor irf1-bla TF-1 cells were seeded at 30 000 cells/32 μL (starvation medium)/well in a 384-well plate.
Compounds were added on the cells in 4 μL (starvation medium)/well at 10× the final concentration. They were incubated for 30 minutes at 37° C.
Human recombinant carrier-free GM-CSF (ThermoFisher, ref PHC2015) was added to the wells in 4 μL (starvation medium)/well at 10×. The final concentration was 1 ng/mL. Control wells without GM-CSF treatment were added. Plates were incubated for 5 hours at 37° C.
6× LiveBlazer-FRET substrate (Invitrogen, K1085) was added to the wells at 8 μL/well. The substrate was prepared shortly before use by mixing 6 μL of solution A and 60 μL of solution B to 934 μL of solution C. Plates were incubated for 2.5 hours at room temperature in the dark. The plates were read on an Envision (Perkin Elmer) with an excitation at a wavelength of 409 nm and two wavelengths for the emission 520 nm and 450 nm. The ratio between the […] emission was used to calculate the IC50s.
The IC50 for the inhibition of pSTAT5 was calculated with the Xlfit software using the 4 Parameter Logistic Model or Sigmoidal Dose-Response Model (model 205).

[3] = biological target: T1, TYK2-JH2 (Homo sapiens, UniProt P29597); test: TYK2-JH2 HTRF binding assay (ligand efficiency); conditions: calculated from IC50 of the TYK-JH2 binding assay (Equation 1)
T1 construct: TYK JH2 enzyme mix (ChemPartnec CP20210818A-BV); purchased ChemPartner CP20210818A-BV
Procedure, shortened: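 His-tagged TYK2 JH2 (0.5 nM) preincubated 10 min at RT with compound (0.1–0.000005 μM) in 20 mM HEPES pH 7.5, 10 mM MgCl2, 0.01% Triton X-100, 1 mM DTT; then 35 nM tracer plus anti-6HIS Tb cryptate, 60 min RT. TR-FRET read (Ex340/Em495/520); IC50 converted to ligand efficiency.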

[4] = tested on: IL-6/pSTAT3; test: IL-6 induced pSTAT3 assay in TF-1 cells; type: cell-based; conditions: Homo sapiens, read-out: Cellular selectivity (IL-6/pSTAT3)
Protocol: The following example describes the IL-6 induced pSTAT3 assay used to determine the cellular selectivity (IL-6/pSTAT3) of the TYK2 inhibitors.
TF-1 (ATCC®, CRL-2003™) cells were cultured in RPMI 1640 Medium, with GlutaMAX™ Supplement, HEPES for Cell Culture (Life Technologies, 72400047), 10% Fetal Bovine Serum (Life Technologies, 26400044), 2 ng/mL human recombinant GM-CSF (Life Technologies, PHC2013), 1 mM Sodium pyruvate (Life Technologies, 11360039), 1% MEM NEAA (Life Technologies, 11140-035), 1% Penicillin/Streptomycin (Life Technologies, 15140-122).
TF-1 (70×10^6) cells were starved overnight in T01 50 flasks (Opti-MEM™ I Reduced Serum Medium, no phenol red (Life Technologies, 11058-021), 1 mM Na pyruvate (Life Technologies, 11360039), 1% MEM NEAA (Life Technologies, 11140-035), and 1% Penicillin/Streptomycin (Life Technologies, 15140-122)) then seeded into 96-well TPP plates (150 000 cell/well) and incubated with test compounds (Final Concentration [nM] 10000-0.05) for 30 minutes at 37° C. […] Stimulation was terminated by addition of lysis buffer (MSD K150SVD) and pSTAT3 detection was measured with Phospho-STAT3 (Tyr705) Kit MSD K150SVD)) according to manufacturer's instruction. Briefly, cell lysates were added to pre-blocked plates, sealed, and shake for 1 hour at room temperature. Plates were then washed and incubated with detection antibody for 1 hour at room temperature. After washing, Read Buffer was added, and plates were read on MSD instrument (Model 1300 MSD Quickplex SQ 120).

T1 sequence (P29597 589-875 limits assumed): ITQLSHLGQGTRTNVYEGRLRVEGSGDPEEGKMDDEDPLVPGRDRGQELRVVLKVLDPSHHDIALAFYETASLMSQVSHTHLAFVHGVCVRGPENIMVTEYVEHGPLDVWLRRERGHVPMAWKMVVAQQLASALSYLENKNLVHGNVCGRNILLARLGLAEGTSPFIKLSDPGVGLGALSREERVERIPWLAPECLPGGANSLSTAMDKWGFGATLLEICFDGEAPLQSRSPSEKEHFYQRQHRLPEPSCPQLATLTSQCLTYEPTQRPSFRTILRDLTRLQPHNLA

| Structure (SMILES) | pIC50 [1] | Cellular selectivity (GM-CSF induced pSTAT5) [2] | Ligand Efficiency [3] | pIC50 [4] | pIC50 [2] |
| --- | --- | --- | --- | --- | --- |
| C[C@H](c1ccc(Nc2cc(Nc3ncccc3S(C)(=O)=O)ncn2)nc1)N1CC2(COC2)C1 [Compound 17, I—N^4-(5-(1-(2-oxa-6-azaspiro[3.3]heptan-6-yl)ethyl) 73yridine-2-yl)-N^6-(3-(methylsulfonyl)73yridine-2-yl)pyrimidine-4,6-diamine] | > 7.00 | †††† | †† (††: 0.37-0.39) | < 5.00 | – |
| CS(=O)(=O)c1cccnc1Nc1cc(Nc2cccc(C(F)(F)F)n2)ncn1 [Compound 19, N^4-(3-(methylsulfonyl)100yridine-2-yl)-N^6-(6-(trifluoromethyl) 100yridine-2-yl)pyrimidine-4,6-diamine] | > 7.00 | – | ††† (†††: >0.39) | < 5.00 | < 5.00 |
| CC1(Nc2ccc(Nc3cc(Nc4ncccc4S(C)(=O)=O)ncn3)nc2)COC1 [Compound 21, N^4-(5-((3-methyloxetan-3-yl)amino)102yridine-2-yl)-N^6-(3-(methylsulfonyl)102yridine-2-yl)pyrimidine-4,6-diamine] | > 7.00 | – | ††† (†††: >0.39) | 5.00 to 5.40 | < 5.00 |
| CC(c1ccc(Nc2cc(Nc3ncccc3S(C)(=O)=O)ncn2)nc1)N1CC(F)C1 (stereo not shown) [Compound 22, N^4-(5-(1-(3-fluoroazetidin-1-yl)ethyl)102yridine-2-yl)-N^6-(3-(methylsulfonyl)102yridine-2-yl)pyrimidine-4,6-diamine] | > 7.00 | – | ††† (†††: >0.39) | 5.00 to 5.40 | < 5.00 |
| Cc1cc(Nc2cc(Nc3ncccc3S(C)(=O)=O)ncn2)ncc1NC1(C)COC1 [Compound 23, N^4-(4-methyl-5-((3-methyloxetan-3-yl)amino)103yridine-2-yl)-N^6-(3-(methylsulfonyl)103yridine-2-yl)pyrimidine-4,6-diamine] | > 7.00 | – | ††† (†††: >0.39) | < 5.00 | < 5.00 |
| CC(NC1CCOC1)c1ccc(Nc2cc(Nc3ccccc3S(C)(=O)=O)ncn2)nc1 (stereo not shown) [Compound 26, N^4-(2-(methylsulfonyl)phenyl)-N^6-(5-(1-(tetrahydrofuran-3-ylamino)ethyl)106yridine-2-yl)pyrimidine-4,6-diamine] | > 7.00 | – | †† (††: 0.37-0.39) | < 5.00 | < 5.00 |
| CS(=O)(=O)c1ccccc1Nc1cc(Nc2ccc3c(n2)CCCC3N2CC3(CCOCC3)C2)ncn1 (stereo not shown) [Compound 27, N^4-(5-(7-oxa-2-azaspiro[3.5]nonan-2-yl)-5,6,7,8-tetrahydroquinolin-2-yl)-N^6-(2-(methylsulfonyl)phenyl)pyrimidine-4,6-diamine] | > 7.00 | – | † (†: <0.37) | < 5.00 | < 5.00 |
| CS(=O)(=O)c1ccccc1Nc1cc(Nc2ccc(CNC3CCOC3)cn2)ncn1 (stereo not shown) [Compound 28, N^4-(2-(methylsulfonyl)phenyl)-N^6-(5-((tetrahydrofuran-3-ylamino)methyl)110yridine-2-yl)pyrimidine-4,6-diamine] | > 7.00 | – | †† (††: 0.37-0.39) | < 5.00 | < 5.00 |
| CC(NC1CC(F)(F)C1)c1ccc(Nc2cc(Nc3ncccc3S(C)(=O)=O)ncn2)nc1 (stereo not shown) [Compound 35, N^4-(5-(1-(3,3-difluorocyclobutylamino)ethyl)122yridine-2-yl)-N^6-(3-(methylsulfonyl)122yridine-2-yl)pyrimidine-4,6-diamine] | > 7.00 | – | ††† (†††: >0.39) | < 5.00 | < 5.00 |
| CC(C)(NC1COC1)c1ccc(Nc2cc(Nc3ccccc3S(C)(=O)=O)ncn2)nc1 [Compound 39, N^4-(2-(methylsulfonyl)phenyl)-N^6-(5-(2-(oxetan-3-ylamino)propan-2-yl)127yridine-2-yl)pyrimidine-4,6-diamine] | > 7.00 | – | †† (††: 0.37-0.39) | < 5.00 | < 5.00 |
| Cc1ccnc(Nc2cc(Nc3ccccc3S(C)(=O)=O)ncn2)c1 [Compound 44, N^4-(4-methylpyridin-2-yl)-N^6-(2-(methylsulfonyl)phenyl) pyrimidine-4,6-diamine] | > 7.00 | – | ††† (†††: >0.39) | < 5.00 | < 5.00 |
| Cc1ccnc(Nc2cc(Nc3ccccc3C(N)=O)ncn2)c1 [Compound 45, 2-((6-((4-methylpyridin-2-yl)amino)pyrimidin-4-yl)amino) benzamide] | > 7.00 | – | ††† (†††: >0.39) | > 5.40 | > 5.40 |
| Cc1cccc(Nc2cc(Nc3ccccc3C(N)=O)ncn2)n1 [Compound 46] | > 7.00 | – | ††† (†††: >0.39) | > 5.40 | > 5.40 |
| Cc1cnnc(Nc2cc(Nc3ccccc3C(N)=O)ncn2)c1 [Compound 47, 2-((6-((5-methylpyridazin-3-yl)amino)pyrimidin-4-yl)amino) benzamide] | > 7.00 | – | ††† (†††: >0.39) | > 5.40 | < 5.00 |
| Cc1cncc(Nc2cc(Nc3ccccc3C(N)=O)ncn2)n1 [Compound 49, 2-(6-(6-methylpyrazin-2-ylamino)pyrimidin-4-ylamino)benzamide] | 6.00 to 7.00 | – | ††† (†††: >0.39) | > 5.40 | < 5.00 |
| Cc1cccc(Nc2cc(Nc3ccccc3NS(C)(=O)=O)ncn2)n1 [Compound 53, N-(2-(6-(6-methylpyridin-2-ylamino)pyrimidin-4-ylamino)phenyl) methanesulfonamide] | 6.00 to 7.00 | – | ††† (†††: >0.39) | > 5.40 | 5.00 to 5.40 |
